In US20070232527A1, “Medicaments and methods combining a HCV protease inhibitor and an AKR competitor” (priority 2005, published 2007):
In brackets after ≈: the same amount, converted by molar mass. Read-outs that look alike come from different tables or passages of the source. Blank lines part the entries; values can stand above or below the compound they belong to.

Columns and labels:
[1] = target: T1, AKR1C2 (Homo sapiens, UniProt P52895); conditions: tibolone as a substrate; cited from earlier work
T1 sequence (P52895 1-323): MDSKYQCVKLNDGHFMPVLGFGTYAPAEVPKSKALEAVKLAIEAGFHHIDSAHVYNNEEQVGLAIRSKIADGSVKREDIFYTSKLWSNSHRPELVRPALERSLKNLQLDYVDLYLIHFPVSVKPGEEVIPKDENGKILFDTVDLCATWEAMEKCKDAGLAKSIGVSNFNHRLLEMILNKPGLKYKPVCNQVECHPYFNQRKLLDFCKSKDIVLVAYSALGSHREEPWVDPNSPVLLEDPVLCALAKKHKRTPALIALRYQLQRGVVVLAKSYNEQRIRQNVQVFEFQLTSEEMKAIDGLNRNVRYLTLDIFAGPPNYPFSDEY

[2] = target: T2, AKR1C3 (Homo sapiens, UniProt P42330); conditions: tibolone as a substrate; cited from earlier work
T2 sequence (P42330 1-323): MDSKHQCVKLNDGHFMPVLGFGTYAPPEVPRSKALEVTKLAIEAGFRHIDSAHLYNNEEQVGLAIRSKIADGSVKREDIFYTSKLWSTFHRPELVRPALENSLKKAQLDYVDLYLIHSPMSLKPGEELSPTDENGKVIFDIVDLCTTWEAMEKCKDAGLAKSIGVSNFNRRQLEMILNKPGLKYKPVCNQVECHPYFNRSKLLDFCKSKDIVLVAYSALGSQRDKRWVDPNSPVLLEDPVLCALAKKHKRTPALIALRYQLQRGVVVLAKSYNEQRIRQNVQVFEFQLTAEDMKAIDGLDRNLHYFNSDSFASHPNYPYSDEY

[3] = system: human liver cytosol; experiment: Inhibition of metabolism of 14C-Formula Ia to Formula Ia′ in human liver cytosol
Protocol: (§3) All incubations contained 3 mM magnesium chloride and NADPH-generating system in 0.5 mL of 50 mM potassium phosphate buffer, pH 7.4. Prior to the addition of drug, incubation mixtures were preincubated for 2 min at 37° C. […] The incubation mixtures were vortexed and centrifuged (˜10,000 g) at 4° C. for 10 min; supernatants were analyzed by HPLC coupled with radiometric detector. Heat activated S9 cofactor or mitochondria were used as control. For LC-MS analysis, supernatants were concentrated in SpeedVac for 3 hrs. Incubation volumes were 0.5 mL and the final concentration of the organic solvents in the incubation system was less than 1% (v/v).
(§4) The mobile phase consisted of 10 mM ammonium acetate adjusted to pH 7.0 with 1% ammonium hydroxide (A) and 100% methanol (B).

[4] = system: Human liver S9; experiment: Inhibition of metabolism of 14C-Formula Ia to Formula Ia′ in human liver S9; assay type: in vitro ADME; conditions: S9; concentration not given
[5] = in vivo; cited from earlier work
[6] = system: cytosolic enzymes that form the metabolite of Formula Ia; experiment: in vitro; conditions: monkey
[7] = system: cytosolic enzymes that convert Formula Ia to Formula Ia′; experiment: in vitro; conditions: human
Protocol: as §3, §4

[8] = target: T2, AKR1C3; experiment: Incubation with S9 fraction of recombinant human AKR1C3; assay type: in vitro ADME; set-up: made in house; conditions: 20 μM 14C-radiolabeled compound; S9 2.5 mg protein/mL; NADPH
Protocol: (§1) Recombinant human AKRs (AKR1C2, AKR1C3 and AKR1C4) were grown, sonicated and centrifuged at ˜10,000 g to obtain S9 fractions. Incubations of ^14C-radiolabeled compound of Formula Ia, ^14C-radiolabeled compound of Formula Ib and ^14C-radiolabeled compound of Formula Ic (all at 20 μM) with S9-fractions from three recombinant human AKRs (2.5 mg protein/mL) were conducted as described above. [drawing 161]
(§2) The samples were analyzed by HPLC-coupled with radiometric detector and confirmed by LC-MS.

[9] = target: T1, AKR1C2; experiment: Incubation with S9 fraction of recombinant human AKR1C2; assay type: in vitro ADME; set-up: made in house; conditions: 20 μM 14C-radiolabeled compound; S9 2.5 mg protein/mL; NADPH
Protocol: as §1, §2

[10] = In vivo inhibition study of Formula Ia with AKR competitor diflunisal, plasma PK; conditions: cynomolgus monkeys plasma; as a function of diflunisal dose 0, 62.5, 125, 250 mg
Protocol: An in vivo study was conducted in cynomolgus monkeys where 200 mg Formula Ia and 0 (control), 62.5, 125, or 250 mg diflunisal (Dolobid) was administered as illustrated below. All six monkeys were first dosed with Formula Ia with blood samples collected over a 12 hr period for plasma pharmacokinetics (PK) of Formula Ia prior to administration of diflunisal (dose-escalation). Four doses of diflunisal were subsequently administered every 12 hr with Formula Ia administered at each 4th diflunisal dose after which blood samples were collected for PK assessment of Formula Ia. The following chart summarizes the timing of Formula Ia and diflunisal administration.

[11] = Clinical study of the effect of ibuprofen on pharmacokinetics of Formula Ia; assay type: in vivo; conditions: human, single 400 mg dose PO fasted, alone or with ibuprofen 600 mg TID; for AUC: plasma, po, 400 mg
Protocol: The study was conducted in an open-label, randomized, 3-period, 2-sequence crossover manner (FIG. 6). During Period 1, all 12 subjects were administered a single 400 mg dose of Formula Ia. During Periods 2 and 3, subjects received multiple doses of ibuprofen (600 mg TID) in a randomized sequence. The ibuprofen was administered beginning on Day 1 (3 days prior to Formula Ia administration) and continued through Day 6. A single dose of Formula Ia was administered on Day 4 (2 hours after administration of the AM dose of ibuprofen). Plasma samples for pharmacokinetic and metabolite analyses of Formula Ia was collected at predose (0 hour), 0.5, 1, 1.5, 2, 2.5, 3, 4, 5, 6, 7, 8, 9, 10, 12, 24, 36, 48, and 72 hour postdose for each period. (The 48 and 72 hour postdose samples for Period 1 was collected in an outpatient setting). In Periods 2 and 3, additional blood samples were collected immediately prior to dosing of the Formula Ia on Day 4 and two hours post ibuprofen administration on Day 5 for determination of ibuprofen concentration.
Treatment A: Formula Ia (4×100 mg capsules); single dose, PO following an overnight fast, administered on Day 1 or Period 1.
Treatment C: Ibuprofen 600 mg; PO, TID from Day 1 to Day 6 Formula Ia (4×100 mg capsules); single dose, PO following an overnight fast, administered on Day 4 (2 hours after the AM ibuprofen dose).
Subjects received a single dose of Formula Ia on Day 1 of Period 1. In Period 2 and Period 3, subjects were treated for 6 days with ibuprofen and received a single dose of Formula Ia on Day 4 of each period. There were at least 7 days between administration of Formula Ia in Period 1 and Period 2 and at least 14 days between administration of Formula Ia in Period 2 and 3.
The proportion of subjects with plasma concentrations above the in vitro IC50 and IC90 for the HCV replicon at each time point was determined. This plasma concentration data was used to estimate the following primary pharmacokinetic variables for the determination of bioavailability comparisons: • AUC—Area under the plasma concentration-time. • Cmax—Maximum observed plasma concentration. • Tmax—Time to maximum observed plasma concentration. • t1/2—Terminal phase half-life.

[12] = system: human liver cytosol; experiment: Incubation of Formula Ia or Formula XXVII in human liver cytosol with AKR competitor (LC-MS, M+2 metabolite); assay type: in vitro ADME
Protocol: Prior to the addition of drug, the incubation mixture was preincubated for 2 min at 37° C. […] Human liver microsomes and cytosol without NADPH served as negative controls. Parallel incubations with the compound of Formula Ia were used as positive controls. […] All incubations were performed as described previously for human liver cytosols. […] Parallel incubations with the compound of Formula Ia were used as positive controls.

Compound: CC(CCC(=O)O)C1CCC2C3C(O)CC4CC(O)CCC4(C)C3CCC12C (stereo not drawn) [5beta-cholanic acid 3alpha, 7-alpha-diol]
- IC50 [1]: 0.21 µM
- IC50 [2]: 74.4 µM

Compound: O=[N+]([O-])c1ccc(OP(=O)(O)Oc2ccc([N+](=O)[O-])cc2)cc1 [BNPP, bis(4-nitrophenyl)-phosphate]
- % Inhibition on Metabolite Formation of Compound Formula Ia ([3]; Table 4, human liver cytosol, inhibitor 1000 μM, 2 hr incubation): 63.4%
- inhibited formation of the compound of Formula Ia′ ([3]; cytosol, concentration not given): 63.4%
- inhibited formation of the compound of Formula Ia′ [4]: 57.4%

Compound: O=C(O)c1cc(-c2ccc(F)cc2F)ccc1O [Diflunisal]
- Ki ([3]; human cytosol, assuming the liver to plasma ratio equals 1): 0.5 µg/mL
- Vdss [5]: 0.1 L/kg
- protein binding [5]: about 99%
- IC50 [6]: 11 µM
- IC50 at 120 min ([7]; pH 7.4): 1 µg/mL (≈ 4 µM)
- inhibition at 2 h, 200 µM ([7]; pH 7.4, % of Inhibition on Metabolite Formation of Compound Formula Ia): 89.4%

- metabolism by recombinant AKR1C3 [8]: yielded compound of Formula Ia′
- metabolism by recombinant AKR1C2 [9]: yielded compound of Formula Ia′
- AUC ratio (Formula Ia′ to AUC for the compound) [10]: decline
- AUC ([11]; read-out: AUC(all), Mean (% CV)): 2040 ng·h/mL
- AUC ([11]; read-out: AUC(l), Mean (% CV)): 2070 ng·h/mL
- AUC(0-t) ([11]; plasma Formula Ia, read-out: AUC(last), Mean (% CV)): 2000 ng·h/mL
- Cmax ([11]; plasma Formula Ia, read-out: Cmax, Mean (% CV)): 571 ng/mL
- MRT ([11]; plasma Formula Ia, read-out: MRT(l), Mean (% CV)): 6.57 h
- Tmax ([11]; plasma Formula Ia, read-out: Tmax (median)): 1.75 h
- half-life ([11]; plasma Formula Ia, read-out: t1/2, Mean (% CV) (converted)): 9.11 h
- 1ST PARENT PEAK AREA ([12]; HL Cytosol w/ NADPH + 50 uM Mefenamic acid): 6.19E+07
- 1ST PARENT PEAK AREA ([12]; HL Cytosol w/ NADPH + 100 uM Flufenamic acid): 6.33E+07
- 1ST PARENT PEAK AREA ([12]; HL Cytosol w/ NADPH + 100 uM Phenolphthalein): 6.23E+07
- 1ST PARENT PEAK AREA ([12]; HL Cytosol w/ NADPH + 200 uM Diflunisal): 6.10E+07
- 1ST PARENT PEAK AREA ([12]; HL Cytosol w/ NADPH Vehicle Control (no inhibitor)): 3.95E+07
- 1ST PARENT PEAK AREA ([12]; HL Cytosol w/o NADPH, 20 μM, 60 min): 7.41E+07
Compound: CC(C)(C)NC(=O)N[C@H](C(=O)N1C[C@H]2[C@@H]([C@H]1C(=O)NC(CC1CCC1)C(=O)C(N)=O)C2(C)C)C(C)(C)C (stereo partly drawn) [Formula Ia, (1R,5S)—N-[3-Amino-1-(Cyclobutylmethyl)-2,3-Dioxopropyl]-3-[2(S)-[[[(1,1-Dimethylethyl)Amino]Carbonyl]Amino]-3,3-Dimethyl-1-Oxobutyl]-6,6-Dimethyl-3-Azabicyclo[3.1.0]Hexan-2(S)-Carboxamide]
